Measured values as given in ChEMBL document CHEMBL1148974, “New eudesmane derivatives from Melampodium camphoratum from the Suriname rainforest” (J Nat Prod, 2004).
Values after ≈ are worked out from the molar mass of the structure shown.

These molecules were tested on Plasmodium falciparum (assay: Antimalarial activity as reduced heme degradation in Plasmodium falciparum infected human erythrocytes).
Format: functional, organism-based

| DC50 | Compound |
| --- | --- |
| 75 µg/mL (≈ 124 µM) | C=C1CCC[C@]2(C)CC[C@@H](C(C)C)[C@H](OC(=O)/C=C/c3ccc(OC(=O)CCCCCCCCCCCCCCC)cc3)[C@@H]12 |
| > 200 µg/mL | C=C1CCC[C@]2(C)CC[C@@H](C(C)C)[C@H](OC(=O)/C=C\c3ccc(OC(C)=O)cc3)[C@@H]12 |
| 48 µg/mL (≈ 125 µM) | C=C1CCC[C@]2(C)CC[C@@H](C(C)C)[C@H](OC(=O)/C=C/c3ccc(OC)cc3)[C@@H]12 |
| > 200 µg/mL | C=C1CCC[C@]2(C)CC[C@@H](C(C)C)[C@H](OC(=O)/C=C/c3ccc(O)cc3)[C@@H]12 |
| > 200 µg/mL | C=C1CCC[C@]2(C)CC[C@@H](C(C)C)[C@H](OC(=O)/C=C\c3ccc(O)cc3)[C@@H]12 |

Second part, the molecule before the results:

| Compound | DC50 |
| --- | --- |
| C=C[C@H]1CN2CC[C@H]1C[C@H]2[C@H](O)c1ccnc2ccc(OC)cc12 [QUININE] | 1.3 µg/mL (≈ 4.01 µM) |
| C=C1CCC[C@]2(C)CC[C@@H](C(C)C)[C@H](OC(=O)/C=C/c3ccc(OC(=O)CCCCCCC/C=C\CCCCCC)cc3)[C@@H]12 | 52 µg/mL (≈ 86 µM) |
| C=C1CCC[C@]2(C)CC[C@@H](C(C)C)[C@H](OC(=O)/C=C/c3ccc(OC(=O)CCCCCCCCCCCCCCCCC)cc3)[C@@H]12 | 110 µg/mL (≈ 173 µM) |
